Values of other authors in US20080003592A1, “Method for conducting pharmacogenomics-based studies” (priority 2003, published 2008).
Where a name gives a salt, the structure may show the parent alone.

Experiments:
[1] = advanced colorectal cancer
[2] = depending on the regimen

| SMILES | patients minimally improved (Alzheimer's patients receiving Cognex, controls about 33%) | patients showing no change or minimal worsening of their disease (patients receiving Cognex for Alzheimer's disease, controls about 68%) | patients much improved (patients receiving Cognex, controls about 1%) | patients with an objective response to the drug ([1]; standard therapy) | patients with a complete response (complete tumor disappearance) ([1]; of the patients with an objective response) | patients suffering serious gastrointestinal or hematopoietic toxicity [2] |
| --- | --- | --- | --- | --- | --- | --- |
| Nc1c2c(nc3ccccc13)CCCC2 [Cognex, tacrine hydrochloride] | About 58% | about 45% | about 2% |  |  |  |
| O=c1[nH]cc(F)c(=O)[nH]1 [5-fluorouracil] |  |  |  | 20-40% | 1-5% | 20-30% |
